Measured values published in patent US12583859B2, “PRMT5 inhibitors and uses thereof” (California Institute of Technology, priority 2019, dated 2026).

Tests used:
PRMT5 = biological target: T1, PRMT5 (Homo sapiens, UniProt O14744); assay: PRMT5 Enzymatic Inhibition Assay (chemiluminescence immunoassay of histone H4 methylation); type: biochemical; settings: 1 hour at room temperature; 10 μM to 1 nM
T1 construct: purchased BPS Biosciences 52002L
Description: A chemiluminescence immunoassay (CLIA) measuring the amount of PRMT5-mediated histone methylation was performed in a 96-well plate format according to the manufacturer's protocol (BPS Biosciences, Cat #52002L). A 96-well plate precoated with histone H4 peptide was rehydrated prior to use. A master mix containing PRMT5 substrate S-adenosylmethionine, reaction buffer, and purified PRMT5 enzyme was added to create reaction-competent wells. Wells lacking either S-adenosylmethionine substrate or PRMT5 enzyme were created as negative controls. 10 test concentrations, ranging from 100 μM to 10 nM, of the test compound were prepared using a 1:3 serial dilution in dH2O. 5 μL of each test concentration was added into a reaction-competent well. 5 μL of a 1% DMSO aqueous solution lacking inhibitor was added into negative control wells and into a reaction-competent well, creating a positive control well. The final reaction volume in each well was 50 μL, and the final concentration of the test compound in each well ranged from 10 μM to 1 nM. A known inhibitor of PRMT5, EPZ015666, was tested in parallel reaction wells as an assay validation control. The 96-well plate was incubated for 1 hour at room temperature.
Upon completion of the incubation, the reaction supernatant in each well was discarded. Wells were washed with 1×TBST and incubated in blocking buffer for 1 hour. The wells were incubated with a primary antibody recognizing methylated Arg3 residues on Histone H4 for 1 hour. The wells were washed with 1×TBST again and subsequently incubated with an HRP-conjugated secondary antibody for 30 minutes. The wells were washed again with 1×TBST, and equal parts of the chemiluminescence reagents were added into each well. Quantification of luminescence was measured in a plate reader.
Luminescence values were normalized against the positive and negative controls to convert the data into % PRMT5 activity. An inhibitor concentration-dependent curve was plotted against % PRMT5 activity and am IC50 value was determined for each compound.

[1] = system: drug-resistant cell lines of Table 4; assay: Cell Line Growth Retardation Assay, average maximum effect in resistant cohort; type: cell-based, Human; settings: average maximum growth inhibition over resistant cohort of Table 4; 6 days; up to 1 μM
Description: (§1) Cells were seeded at densities of 1,000-5,000 cells per well in 48-well tissue culture plates. After a 24 h rest period, cells were treated with compound at 1 μM, 0.2 μM, 0.04 μM, 0.008 μM, 0.0016 μM, and 0.00032 μM. A group of cells were treated with the vehicle in which the compound was prepared and served as a control. Prior to treatment, cells were counted and this count was used as a baseline for the calculation of growth inhibition. The cells were grown in the presence of compounds for 6 days and were counted on day 6. All cell counting was performed using a Synentec Cellavista plate imager. Growth inhibition was calculated as a ratio of cell population doublings in the presence of compound versus the absence of compound and expressed as the maximum percentage growth inhibition achieved across the range of tested concentrations of the compound (“maximum effect” or “ME”) calculated by fitting curves to data points from each dose-response assay using the Proc NLIN function in SAS for Windows version 9.2 (SAS Institute, Inc.).
(§2) Human cancer cell lines were grouped as “sensitive” or “resistant” to PRMT5 inhibition based on whether their growth was retarded by JNJ-64619178 (i.e., (1S,2R,3R,5R)-3-(2-(2-amino-3-bromoquinolin-7-yl)ethyl)-5-(4-amino-7H-pyrrolo[2,3-d]pyrimidin-7-yl)cyclopentane-1,2-diol) (data not shown; see Table 4). These sensitive and resistant cohorts were interrogated for response to each compound, and ME was calculated for each cell line using the same technique described above. Average MEs for the sensitive and resistant cohorts were calculated as arithmetic means of the group. “A” represents a percent of maximum effect of 60% or greater, “B” represents a percent of maximum effect of 30% to 59%, and “C” represents a percent of maximum effect of 29% or lower.

[2] = system: drug-sensitive cell lines of Table 4; assay: Cell Line Growth Retardation Assay, average maximum effect in sensitive cohort; type: cell-based, Human; settings: average maximum growth inhibition over sensitive cohort of Table 4; 6 days; up to 1 μM
Description: as §1, §2

[3] = Measurement of Compound Metabolic Stability in hepatocytes; type: in vitro ADME; settings: mouse hepatocytes; for hepatocyte CLint at 1 μM: read-out: CLint (μL/min/10^6)
Description: The metabolic stability of compounds was determined in hepatocytes from human, mice and rats. Compounds were diluted to 5 μM in Williams' Medium E from 10 mM stock solutions. 10 μL of each compound was aliquoted into a well of a 96-well plate and reactions were started by aliquoting 40 μL of a 625,000 cells/mL suspension into each well. The plate was incubated at 37° C. with 5% CO2. At each corresponding time point, the reaction was stopped by quenching with ACN containing internal standards (IS) at a 1:3. Plates were shaken at 500 rpm for 10 min, and then centrifuged at 3,220×g for 20 minutes. Supernatants were transferred to another 96-well plate containing a dilution solution. Supernatants were analyzed by LC/MS/MS. The Half-lives (in minutes) and CLint values (in μL/min/10^6 cells) of example compounds, as measured in mouse hepatocytes, are presented in Table 3. […] For CLint, “A” represents greater than 100 μL/min/10^6 cells, “B” represents 50 to 100 μL/min/10^6 cells, and “C” represents less than 50 μL/min/10^6 cells.
The remaining percent of compound after incubation was calculated using the following equation: % Remaining Compound=Peak Area Ratios of Tested Compound vs. Internal Standard at End Point • Peak Area Ratios of Tested Compound vs. Internal Standard at Start Point Compound half-life and CLint were calculated using the following equations: Ct=C0*e^−k*t(first order kinetics); when […], t1/2=ln 2/k=0.693/k; and CLint=k/(1,000,000 cells/mL) Activity-Guided Selection of Inhibitors

T1 sequence (O14744 2-637 limits assumed): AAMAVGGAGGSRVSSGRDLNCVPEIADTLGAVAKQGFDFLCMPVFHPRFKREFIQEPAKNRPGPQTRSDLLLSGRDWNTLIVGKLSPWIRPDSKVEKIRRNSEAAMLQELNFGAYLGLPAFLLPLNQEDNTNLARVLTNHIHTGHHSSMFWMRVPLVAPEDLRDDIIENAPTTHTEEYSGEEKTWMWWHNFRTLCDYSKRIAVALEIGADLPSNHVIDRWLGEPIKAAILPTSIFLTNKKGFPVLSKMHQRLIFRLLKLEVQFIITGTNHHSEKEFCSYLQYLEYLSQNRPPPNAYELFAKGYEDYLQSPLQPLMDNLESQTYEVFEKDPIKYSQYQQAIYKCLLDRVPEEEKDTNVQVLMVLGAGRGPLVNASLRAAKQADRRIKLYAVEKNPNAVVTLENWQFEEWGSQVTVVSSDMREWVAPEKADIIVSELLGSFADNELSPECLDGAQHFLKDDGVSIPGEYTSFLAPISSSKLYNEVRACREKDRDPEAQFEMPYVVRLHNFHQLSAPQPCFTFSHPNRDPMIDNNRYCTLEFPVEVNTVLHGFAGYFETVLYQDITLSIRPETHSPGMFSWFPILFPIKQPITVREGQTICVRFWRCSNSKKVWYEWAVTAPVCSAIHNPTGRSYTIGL
T1 sequence (Q9BQA1 2-342 partner limits assumed): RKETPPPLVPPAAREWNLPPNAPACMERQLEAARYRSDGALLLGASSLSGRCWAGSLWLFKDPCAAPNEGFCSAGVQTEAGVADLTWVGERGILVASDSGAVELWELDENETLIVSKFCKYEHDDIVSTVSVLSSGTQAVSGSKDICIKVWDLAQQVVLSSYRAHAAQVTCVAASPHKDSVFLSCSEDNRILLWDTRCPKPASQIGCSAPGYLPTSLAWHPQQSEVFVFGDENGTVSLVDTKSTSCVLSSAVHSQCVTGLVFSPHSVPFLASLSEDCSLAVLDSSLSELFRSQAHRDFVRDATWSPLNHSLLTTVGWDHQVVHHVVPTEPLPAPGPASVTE

SMILES	IC50 (PRMT5)	AvgRes ME (%) [1]	AvgSens ME (%) [2]	half-life at 1 μM [3]	hepatocyte CLint at 1 μM [3]
O[C@H]1[C@H](n2ccc3c(Cl)ncnc32)C[C@@]2(CNC(c3ccc4cc(Br)c(Cl)nc4c3)C2)[C@H]1O (single isomer, unassigned) [Compound 1]	> 500 nM	C (a percent of maximum effect of 29% or lower)	C (a percent of maximum effect of 29% or lower)		
O[C@H]1[C@H](n2ccc3c(Cl)ncnc32)C[C@@]2(CNC(c3ccc4cc(Br)c(Cl)nc4c3)C2)[C@H]1O (single isomer, unassigned) [Compound 2]	> 500 nM	C (a percent of maximum effect of 29% or lower)	C (a percent of maximum effect of 29% or lower)		
Nc1ncnc2c1ccn2[C@@H]1C[C@@]2(CNC(c3ccc4cc(Br)c(Cl)nc4c3)C2)[C@@H](O)[C@H]1O (single isomer, unassigned) [Compound 3]	> 500 nM	C (a percent of maximum effect of 29% or lower)	C (a percent of maximum effect of 29% or lower)		
Nc1ncnc2c1ccn2[C@@H]1C[C@@]2(CNC(c3ccc4cc(Br)c(Cl)nc4c3)C2)[C@@H](O)[C@H]1O (single isomer, unassigned) [Compound 4]	101 to 500 nM	C (a percent of maximum effect of 29% or lower)	C (a percent of maximum effect of 29% or lower)		
CN1C[C@]2(CC1c1ccc3cc(Br)c(N)nc3c1)C[C@@H](n1ccc3c(N)ncnc31)[C@H](O)[C@@H]2O (single isomer, unassigned) [Compound 5]	101 to 500 nM	C (a percent of maximum effect of 29% or lower)	C (a percent of maximum effect of 29% or lower)		
CN1C[C@]2(CC1c1ccc3cc(Br)c(N)nc3c1)C[C@@H](n1ccc3c(N)ncnc31)[C@H](O)[C@@H]2O (single isomer, unassigned) [Compound 6]	> 500 nM	C (a percent of maximum effect of 29% or lower)	C (a percent of maximum effect of 29% or lower)		
Nc1nc2cc(C3C[C@@]4(CN3)C[C@@H](n3ccc5c(N)ncnc53)[C@H](O)[C@@H]4O)ccc2cc1Br (single isomer, unassigned) [Compound 7]	≤ 100 nM	B (a percent of maximum effect of 30% to 59%)	A (a percent of maximum effect of 60% or greater)		
Nc1nc2cc(C3C[C@@]4(CN3)C[C@@H](n3ccc5c(Cl)ncnc53)[C@H](O)[C@@H]4O)ccc2cc1Br (single isomer, unassigned) [Compound 10]	101 to 500 nM	C (a percent of maximum effect of 29% or lower)	C (a percent of maximum effect of 29% or lower)		
Nc1nc2cc(C3C[C@@]4(CO3)C[C@@H](n3ccc5c(N)ncnc53)[C@H](O)[C@@H]4O)ccc2cc1Br (single isomer, unassigned) [Compound 16]	≤ 100 nM	B (a percent of maximum effect of 30% to 59%)	A (a percent of maximum effect of 60% or greater)		
Nc1nc2cc(C3C[C@@]4(CO3)C[C@@H](n3ccc5c(Cl)ncnc53)[C@H](O)[C@@H]4O)ccc2cc1Br (stereo partly shown) [Compound 18]	≤ 100 nM	C (a percent of maximum effect of 29% or lower)	C (a percent of maximum effect of 29% or lower)		
Nc1ccc2ccc([C@H]3C[C@@]4(CO3)C[C@@H](n3ccc5c(Cl)ncnc53)[C@H](O)[C@@H]4O)cc2n1 [Compound 20]	≤ 100 nM	B (a percent of maximum effect of 30% to 59%)	A (a percent of maximum effect of 60% or greater)	< 15 min	> 100 µL/min/1e6 cells
Nc1ccc2ccc([C@H]3C[C@@]4(CO3)C[C@@H](n3ccc5cncnc53)[C@H](O)[C@@H]4O)cc2n1 [Compound 21]	≤ 100 nM	B (a percent of maximum effect of 30% to 59%)	A (a percent of maximum effect of 60% or greater)	< 15 min	> 100 µL/min/1e6 cells
CC(C)Nc1ncnc2c1ccn2[C@@H]1C[C@@]2(CO[C@@H](c3ccc4cc(Br)c(N)nc4c3)C2)[C@@H](O)[C@H]1O [Compound 25]	≤ 100 nM	C (a percent of maximum effect of 29% or lower)	B (a percent of maximum effect of 30% to 59%)		
CCCNc1ncnc2c1ccn2[C@@H]1C[C@@]2(CO[C@@H](c3ccc4cc(Br)c(N)nc4c3)C2)[C@@H](O)[C@H]1O [Compound 26]	≤ 100 nM	B (a percent of maximum effect of 30% to 59%)	B (a percent of maximum effect of 30% to 59%)		
